“And” between values parts separate entries of the source, which are not always exact repeats. Identical values can stand only once.
Tests used:
[1] = test system: monoclonal antibody specifically reactive with 2-amino-3-[2-(α-mannopyranosyl)indole-3-yl]propionic acid; experiment: Confirming the specificity of the monoclonal antibody (competitive enzyme immunoassay, absorbance at 660 nm); type: binding, mouse; conditions: test samples at concentrations not more than 100 μg/ml; plate coated with BSA conjugate
Description: First, 50 μl of 2-amino-3-[2-(α-D-mannopyranosyl)indole-3-yl]propionic acid-BSA conjugate solution (20 μg/ml, 0.1M carbonate buffer, pH9.5) was dispensed into a 96-well microtiter plate (available from NUNC) and left to stand at 4° C. overnight. After washing the plate with PBS (×3), 250 μl of 1% BSA/PBS solution was dispensed into the plate and left to stand at room temperature for 1 hour. Then, the plate was washed with PBS (×3) to be used as a reaction plate. Next, 50 μl of 0.1M phosphate buffer (pH 7.4) containing varied concentrations of test sample/0.1% BSA was dispensed into the reaction plate into which 50 μl of the monoclonal antibody prepared in e. Purifying the antibodies above (0.1M phosphate buffer containing l10 ng/ml 0.1% BSA, pH7.4) was added while stirring. The mixture was allowed to react at room temperature for 3 hours. After the reaction was completed, the plate was washed with PBS containing 0.05% Tween 20 (5×), and then 50 μl of POD labeled-anti-mouse immunoglobulins-rabbit IgG (DAKO) was added to the plate for reaction at room temperature for 1 hour. […] Finally, 50 μl of reaction stopper (ethyldiethyldithiocarbamate) was added to the plate of which absorbance was then determined at 660 nm by a microplate reader.

[2] = GFR assay, comparative example: creatinine in the same samples by enzymatic assay kit, clearance (Example 8); type: in vivo, human
[3] = Assay of excreted amount in urine, comparative example: creatinine by enzymatic assay kit (Example 9); type: in vivo, human; conditions: healthy persons

creatinine in serum ([2]; Average of 18 subjects) [mg/dL] | creatinine in urine ([2]; Average of 18 subjects) [mg/dL] | excreted amount in urine, average ([3]; female, age 0-10) [mg/day] | excreted amount in urine, average ([3]; female, age 0-90) [mg/day] | excreted amount in urine, average ([3]; female, age 10-30) [mg/day] | excreted amount in urine, average ([3]; female, age 30-50) [mg/day] | excreted amount in urine, average ([3]; female, age 50-70) [mg/day] | excreted amount in urine, average ([3]; female, age 70-90) [mg/day] | excreted amount in urine, average ([3]; male, age 0-10) [mg/day] | excreted amount in urine, average ([3]; male, age 0-90) [mg/day] | excreted amount in urine, average ([3]; male, age 10-30) [mg/day] | excreted amount in urine, average ([3]; male, age 50-70) [mg/day] | excreted amount in urine, average ([3]; male, age 70-90) [mg/day] | Compound | decrease in the absorbance (reaction with the antibody) [1] | creatinine in serum ([2]; individual subjects 1-18, patients with non-renal disease) | creatinine in urine ([2]; individual subjects 1-18, urine stored for 24 hours)
– | – | – | – | – | – | – | – | – | – | – | – | – | O=C[C@@H](O)[C@@H](O)[C@H](O)[C@H](O)CO (racemic) [DL-mannose] | no decrease | – | –
– | – | – | – | – | – | – | – | – | – | – | – | – | N[C@@H](Cc1c[nH]c2ccccc12)C(=O)O [L-tryptophan] | no decrease | – | –
0.65 | 72.12 | 245 | 559 | 609 | 742 | 684 | 515 | 387 | 833 | 1066 | 893 | 599 | CN1CC(=O)NC1=N [creatinine] | – | 0.61 mg/dl and 0.80 mg/dl (3×) and 0.50 mg/dl and 0.40 mg/dl (3×) and 0.70 mg/dl (4×) and 0.56 mg/dl and 0.72 mg/dl and 0.63 mg/dl and 0.64 mg/dl and 0.71 mg/dl and 0.84 mg/dl | 50.1 mg/dL and 48.9 mg/dL and 21.2 mg/dL and 51.9 mg/dL and 30.5 mg/dL and 70.2 mg/dL and 32.0 mg/dL and 74.1 mg/dL and 48.2 mg/dL and 138.8 mg/dL and 46.5 mg/dL and 100.2 mg/dL and 63.5 mg/dL and 142.0 mg/dL and 88.0 mg/dL and 69.9 mg/dL and 183.1 mg/dL and 39.0 mg/dL

From US6610502B1, “Compound 2-amino-3-[2-(α-mannopyranosyl)indol-3-yl]propionic acid, process for preparing the same, and method for inspecting function of living body with the novel compound” (Kyowa Medex Co., Ltd., priority 1997, dated 2003)
